Reference: publication PMC7717600, “Novel [(N-alkyl-3-indolylmethylene)hydrazono]oxindoles arrest cell cycle and induce cell apoptosis by inhibiting CDK2 and Bcl-2: synthesis, biological evaluation and in silico studies” (Journal of Enzyme Inhibition and Medicinal Chemistry, 2020)
Read-outs that look alike come from different tables or passages of the source.

Tests used:
HL-60(TB) = details: HL-60(TB)
PC-3 = assay: NCI SRB screening; assay type: cell-based, human
UACC-257 = details: for TGI: UACC-257
SK-MEL-28 = details: for TGI: SK-MEL-28
HCT-116 = assay: SRB anti-proliferative assay; assay type: cell-based; details: Homo sapiens; HCT-116, SRB, mean ± SE of 3
Description: (§1) All the newly prepared target conjugates (7, 8a–c, 9 and 10a–e) were investigated for the prospective growth inhibitory actions against three different cancer cell lines viz.; A-549, MDA-MB-231, and HCT-116, using the sulforhodamine B colorimetric (SRB) assay. Staurosporine, a clinically used antitumor drug, was co-assayed as a reference agent for the experiment.
(§2) Examination of the cytotoxic activity for the target conjugates was carried out in accordance with the SRB colorimetric assay protocol, as described previously.
(§3) In vitro anti-proliferative activity assay
(§4) Cells at a concentration of 0.50 x
(§5) Sulfo-Rhodamine-B stain (SRB) assay.
(§6) cell to the wall of the plate.
(§7) wells were prepared for each individual dose).
(§8) Unbound dye was removed by four

MDA-MB-231 = assay: SRB anti-proliferative assay; assay type: cell-based; details: Homo sapiens; MDA-MB-231, SRB, mean ± SE of 3
Description: as §1, §2, §3, §4, §5, §6, §7, §8

DU-145 = details: for TGI: DU-145
RPMI-8226 = details: for TGI: RPMI-8226
RXF 393 = details: for TGI: RXF 393
HCC-2998 = assay: NCI SRB screening; assay type: cell-based, human
HT29 = details: for TGI: HT29
SNB-19 = details: for TGI: SNB-19
NCI-H522 = details: for TGI: NCI-H522
COLO 205 = assay: NCI SRB screening; assay type: cell-based, human
LOX IMVI = assay: NCI SRB screening; assay type: cell-based, human
786-0 = details: for TGI: 786-0
IGROV1 = details: for TGI: IGROV1
MCF7 = details: for TGI: MCF7
U251 = details: for TGI: U251

CCCn1cc(C=NN=C2C(=O)Nc3ccc(C)cc32)c2ccccc21 [Compound 8a]
TGI (HL-60(TB)): 4.80E-6 Molar
GI % (HL-60(TB); 10 μM): 123%
Growth Percent (HL-60(TB); 1.00E-5 Molar): -22.61%
GI50 (PC-3; Homo sapiens, PC-3): 1.83 µM
TGI (PC-3; PC-3): 5.17 µM
GI % (PC-3; PC-3, 10 μM): 82%
Growth Percent (PC-3; PC-3, 1.00E-5 Molar): 17.96%
TGI (PC-3; PC-3, listed as D - 795311 / 1): 5.17E-6 Molar
TGI (UACC-257): 66.60 µM
GI % (UACC-257; UACC-257, 10 μM): 41%
Growth Percent (UACC-257; UACC-257, 1.00E-5 Molar): 58.80%
TGI (UACC-257; listed as D - 795311 / 1): 6.66E-5 Molar
TGI (SK-MEL-28): 36.9 µM
GI % (SK-MEL-28; SK-MEL-28, 10 μM): 41%
Growth Percent (SK-MEL-28; SK-MEL-28, 1.00E-5 Molar): 59.40%
TGI (SK-MEL-28; listed as D - 795311 / 1): 3.69E-5 Molar
IC50 (HCT-116): 2.6 ± 0.17 µM
IC50 (MDA-MB-231): 4.7 ± 0.28 µM
TGI (EKVX): >100 µM
GI % (EKVX; 10 μM): 50%
Growth Percent (EKVX; 1.00E-5 Molar): 50.45%
TGI (EKVX; listed as D - 795311 / 1): > 1.00E-4 Molar
TGI (DU-145): 40.60 µM
GI % (DU-145; DU-145, 10 μM): 34%
Growth Percent (DU-145; DU-145, 1.00E-5 Molar): 66.43%
TGI (DU-145; listed as D - 795311 / 1): 4.06E-5 Molar
TGI (RPMI-8226): 3.96 µM
GI % (RPMI-8226; RPMI-8226, 10 μM): 125%
Growth Percent (RPMI-8226; RPMI-8226, 1.00E-5 Molar): -24.86%
TGI (RPMI-8226; listed as D - 795311 / 1): 3.96E-6 Molar
TGI (RXF 393): 7.94 µM
GI % (RXF 393; RXF 393, 10 μM): 89%
Growth Percent (RXF 393; RXF 393, 1.00E-5 Molar): 11.38%
TGI (RXF 393; listed as D - 795311 / 1): 7.94E-6 Molar
TGI (HCC-2998; HCC-2998): 5.14 µM
GI % (HCC-2998; HCC-2998, 10 μM): 53%
Growth Percent (HCC-2998; HCC-2998, 1.00E-5 Molar): 46.95%
TGI (HCC-2998; HCC-2998, listed as D - 795311 / 1): 5.14E-6 Molar
GI50 (HCC-2998; Homo sapiens, HCC-2998): 2.09 µM
GI50 (T-47D): 0.41 µM
TGI (T-47D): 18.40 µM
GI % (T-47D; 10 μM): 61%
Growth Percent (T-47D; 1.00E-5 Molar): 39.59%
TGI (T-47D; listed as D - 795311 / 1): 1.84E-5 Molar
TGI (HT29): >100 µM
GI % (HT29; HT29, 10 μM): 83%
Growth Percent (HT29; HT29, 1.00E-5 Molar): 17.08%
TGI (HT29; listed as D - 795311 / 1): > 1.00E-4 Molar
TGI (SNB-19): >100 µM
GI % (SNB-19; SNB-19, 10 μM): 37%
Growth Percent (SNB-19; SNB-19, 1.00E-5 Molar): 63.34%
TGI (SNB-19; listed as D - 795311 / 1): > 1.00E-4 Molar
TGI (NCI-H522): 6.59 µM
GI % (NCI-H522; NCI-H522, 10 μM): 86%
Growth Percent (NCI-H522; NCI-H522, 1.00E-5 Molar): 13.81%
TGI (NCI-H522; listed as D - 795311 / 1): 6.59E-6 Molar
TGI (COLO 205; COLO 205): 3.06 µM
GI % (COLO 205; COLO 205, 10 μM): 116%
Growth Percent (COLO 205; COLO 205, 1.00E-5 Molar): -16.20%
TGI (COLO 205; COLO 205, listed as D - 795311 / 1): 3.06E-6 Molar
GI50 (COLO 205; Homo sapiens, COLO 205): 1.25 µM
TGI (LOX IMVI): 3.06 µM
Growth Percent (LOX IMVI; 1.00E-5 Molar): 4.42%
GI50 (LOX IMVI; Homo sapiens): 1.26 µM
TGI (LOX IMVI; listed as D - 795311 / 1): 3.06E-6 Molar
TGI (786-0): 71.20 µM
GI % (786-0; 786-0, 10 μM): 36%
Growth Percent (786-0; 786-0, 1.00E-5 Molar): 64.53%
TGI (786-0; listed as D - 795311 / 1): 7.12E-5 Molar
TGI (IGROV1): 63.10 µM
GI % (IGROV1; IGROV1, 10 μM): 61%
Growth Percent (IGROV1; IGROV1, 1.00E-5 Molar): 39.38%
TGI (IGROV1; listed as D - 795311 / 1): 6.31E-5 Molar
TGI (MCF7): 15.50 µM
GI % (MCF7; MCF7, 10 μM): 91%
Growth Percent (MCF7; MCF7, 1.00E-5 Molar): 8.92%
TGI (MCF7; listed as D - 795311 / 1): 1.55E-5 Molar
TGI (U251): 17.3 µM
GI % (U251; U251, 10 μM): 60%
Growth Percent (U251; U251, 1.00E-5 Molar): 39.96%
TGI (U251; listed as D - 795311 / 1): 1.73E-5 Molar
TGI (SN12C): 75.90 µM
GI % (SN12C; 10 μM): 51%
Growth Percent (SN12C; 1.00E-5 Molar): 49.93%
TGI (SN12C; listed as D - 795311 / 1): 7.59E-5 Molar
